# Experimental data reported in patent US8981052B2, “JNK inhibitor molecules” (Xigen Inflammation Ltd., priority 2010, dated 2015).
# Where a SMILES comes first, the peptide text is derived from it. Where no end group is shown, it is not given here. [ ]: non-standard residue; d: D form.
# Legend:
# Hela cells = test: Internalization of TAT derived transporters, 24 hours incubation, fluorescence of cell extracts; assay type: cell-based; details: FIG. 6; Y in position 2
# Experimental: The transporter sequences analyzed correspond to SEQ ID NOs: 52-94 plus SEQ ID NOs: 45, 47, 46, 43 and 99 (FIG. 6a) and SEQ ID NOs: 100-147 (FIG. 6b). […] Hela cells were incubated 24 hours in 96 well plate with […] of the respective transporters. The cells were then washed twice with an acidic buffer (0.2M Glycin, 0.15M NaCl, pH 3.0) and twice with PBS. Cells were broken by the addition of RIPA lysis buffer. The relative amount of internalized peptide was then determined by reading the fluorescence intensity (Fusion Alpha plate reader; PerkinElmer) of each extract followed by background subtraction.
# Hela cells were incubated 24 hours in 96 well plate with […] of the r3-L-TAT-derived transporters. The cells were then washed twice with an acidic buffer (0.2M Glycin, 0.15M NaCl, pH 3.0) and twice with PBS. Cells were broken by the addition of RIPA lysis buffer. The relative amount of internalized peptide was then determined by reading the fluorescence intensity (Fusion Alpha plate reader; PerkinElmer) of each extract followed by background subtraction
# [1] = Stability (half-life) of JNK inhibitors in human serum, UPLC-MS
# Experimental: The experiment was performed as described by Tugyi et al. (Proc Natl Acad Sci USA, 2005, 413-418). The remaining intact peptide was quantified by UPLC-MS.
# [2] = tested on: primary rat lymph-nodes purified T cells; test: CD3/CD28-induced IL-2 release in primary rat lymph-nodes purified T cells; assay type: cell-based; details: inhibitor added 1 h before CD3/CD28 (2 μg/mL), supernatant after 24 h
# Experimental: Control rat were sacrificed and lymph-nodes were harvested. T cells further were purified (using magnetic negative selection) and plated into 96-well plates at 200,000 cells/well. Cells were treated with anti-rat CD3 and anti-rat CD28 antibodies (2 μg/mL). JNK inhibitor with SEQ ID NO: 172 was added to the cultures 1 h before CD3/CD28 treatment and IL-2 release was assessed in supernatant 24 h after treatment.
# Control animal were sacrificed, lymph nodes (LN) were harvested and kept in complete RPMI medium. LN were smashed with complete RPMI on 70 μm filter using a 5 ml piston. A few drops of media were added to keep strainer wet. Cells were centrifuged for 7 min at 450 g and 4° c. Pellet was resuspended in 5 ml fresh medium. Cells were passed again through cell strainer. An aliquot of cells was counted, while cells were centrifuged again 10 min at 1400 rpm and 4° c. Cells were resupended in MACS buffer (80 μl of MACS buffer per 10^7 cells). 10 μl of anti-rat MHC microbeads were added per 10 million cells, cells were incubated for 15 min at 4°-8° C. Cells were washed with 15 ml MACS buffer and centrifuge for 7 min at 700 g and 4° C. […] Resuspended cells were counted and plated at density of 200000 cells/well in 100 μl of complete medium. […] Cytokines were then measured using standard Elisa kits. Results are expressed as pg/ml of supernatant of the measured cytokine. […]
# His-JNK1 = molecular target: T1, His-JNK1 (Homo sapiens, UniProt P45983); test: AlphaScreen assay, inhibition of JNK1 mediated phosphorylation of biotin-cJun substrate; assay type: biochemical; details: compared with L-TAT-IB1; JNK isoform not stated
# T1 construct: His; purchased Upstate 14-327
# T1 sequence (P45983 1-384 isoform P45983-2): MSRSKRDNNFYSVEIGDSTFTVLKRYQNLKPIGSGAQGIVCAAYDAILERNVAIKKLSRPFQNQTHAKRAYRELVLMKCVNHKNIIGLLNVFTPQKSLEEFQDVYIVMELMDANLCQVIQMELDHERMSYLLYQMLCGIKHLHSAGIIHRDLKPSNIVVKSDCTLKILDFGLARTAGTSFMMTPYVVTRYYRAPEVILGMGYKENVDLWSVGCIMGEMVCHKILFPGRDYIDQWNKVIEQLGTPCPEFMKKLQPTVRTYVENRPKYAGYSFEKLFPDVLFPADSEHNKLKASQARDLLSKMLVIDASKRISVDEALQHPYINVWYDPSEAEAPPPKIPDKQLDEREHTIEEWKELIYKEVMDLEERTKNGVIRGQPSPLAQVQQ
# Experimental: In the following the standard operating procedure will be set forth describing how the Inhibitory efficacy of JNK inhibitors according to the present invention was measured. The method allows to measure in vitro, in a non radioactive standardized assay, the ability of a candidate compound to decrease the phosphorylation of the c-Jun specific substrate by JNK. Moreover, it will be illustrated how to determine the inhibitory effect (IC50) and the Ki of a chosen compound for JNK.
# • His-JNK1 (ref 14-327, Upstate, 10 μg in 100 μl: concentration: 2.2 μM) 5 nM final • His-JNK2 (ref 14-329, Upstate, 10 μg in 100 μl: concentration: 2 μM) 5 nM final • His-JNK3 (ref 14-501, Upstate, 10 μg in 100 μl: concentration: 1.88 μM) 5 nM final • Anti-Phospho-cJun (ref 06-828, Upstate, lot DAM1503356, concentration: 44.5 μM) 10 nM final • Biotin-cJun (29-67): • sequence: Biotin-[…] […]
# The bioluminescent energy transfer was read on the Fusion Alpha Plate reader (Perkin Elmer). […]
compound,measurement,setting,value
rYKRrQRRr ([dR]YKR[dR]QRR[dR]) [SEQ ID NO: 142],transporter activity,Hela cells,highest transporter activity
dqsrpvqpflnlttprkprpprrrqrrkkrg ([dD][dQ][dS][dR][dP][dV][dQ][dP][dF][dL][dN][dL][dT][dT][dP][dR][dK][dP][dR][dP][dP][dR][dR][dR][dQ][dR][dR][dK][dK][dR]G) [SEQ ID NO: 197],sensitivity to proteolytic degradation,[1],extremely stable towards proteolytic digestion
same,CD3/CD28-induced IL-2 release,[2],Dose-dependent inhibition
same,"inhibitory capacity (JNK inhibition, FIG. 4)",His-JNK1,significant decrease in inhibitory capacity in comparison to L-TAT-IB1
"CC(C)C[C@H](NC(=O)[C@H](CC(N)=O)NC(=O)[C@H](CC(C)C)NC(=O)[C@@H](NC(=O)[C@@H](C)NC(=O)[C@@H]1CCCN1C(=O)[C@H](CCCNC(=N)N)NC(=O)[C@@H](CCCCN)NC(=O)[C@@H]1CCCN1C(=O)[C@H](CCCNC(=N)N)NC(=O)[C@@H](CCCNC(=N)N)NC(=O)[C@H](CCCNC(=N)N)NC(=O)[C@H](CCCNC(=N)N)NC(=O)[C@H](CCC(N)=O)NC(=O)[C@@H](CCCNC(=N)N)NC(=O)[C@H](CCCNC(=N)N)NC(=O)[C@H](CCCCN)NC(=O)[C@H](CCCCN)NC(=O)[C@H](N)CCCNC(=N)N)[C@@H](C)O)C(=O)N[C@H](Cc1ccccc1)C(N)=O [SEQ ID NO: 172, rKKRrQRRrRPkRPaTLNLf] (H-[dR]KKR[dR]QRR[dR]RP[dK]RP[dA]TLNL[dF]-NH2; N-terminus assumed)",time until completely degraded,"[1]; human serum (50%; 10 and 50% in PBS 1×), 0.1 mM peptide",14 days
